These are literature values, as cited in patent publication US20210322447A1, “T[…]-DOSING DELIVERY OF PSYCHEDELICS DERIVATIVES” (PIKE THERAPEUTICS, INC., priority 2020, published 2021).

Each structure is given as a SMILES string.

The test system of series [1] is serotonin receptors in the brain. Particulars: once ingested; typical duration.
In the next series the test system is central nervous system. Particulars: cited from Nelson and Foltz, Anal. Chem. 64, 1578-1585, 1992.

With `CN(C)CCc1c[nH]c2cccc(OP(=O)(O)O)c12` [psilocybin, [3-(2-dimethylaminoethyl)-1H-indol-4-yl] dihydrogen phosphate], the “duration of mind-altering effects” value in series [1] is “two to six”. For `CCN(CC)C(=O)[C@@H]1C=C2c3cccc4[nH]cc(c34)C[C@H]2N(C)C1` [LSD, 9,10-didehydro-N,N-diethyl-6-methylergoline-80-carboxamide], the “concentration sufficient to induce hallucination” value in the series with central nervous system is 20 to 80 µg.
